The assay concerns TNFα release from activated monocytic cells. Put plainly: Cytokine release assay in vitro (TNFα, ELISA). Conditions: 1 μM, 18 hours. It counts as cell-based, human. The protocol: Human donor monocyte-derived dendritic cells are cultured in RPMI-1640 containing 10% fetal bovine serum for six days in the presence of 10 ng/mL IL-4 and 200 ng/mL GM-CSF. The cells are activated with various activation stimuli: 10 ng/mL LPS (Sigma), 5 μg/mL recombinant human CD-40 ligand (R&D Systems), or 5 μM Human CpG-DNA (HyCult Biotechnology) in the presence of prostaglandin E2 (PGE2) (1 μM), vehicle control (DMSO) or test substances (1 μM) for 18 hours. The levels of cell culture supernatant TNFα for individual donors is measured by commercial ELISA kits.

One compound from US7563924B2, “9-chloro-15-deoxyprostaglandin derivatives, process for their preparation and their use as medicaments” (Schering Aktiengesellschaft, priority 2005, dated 2009) can be followed below.

SMILES strings stand for the structures.

As to `CCCCC[C@H](O)/C=C/[C@H]1[C@H](O)CC(=O)[C@@H]1C/C=C\CCCC(=O)O` [PGE2, Prostaglandin E2], the TNFα runs as follows: (CD40 ligand, Donor 3) 147.9 pg/mL; (CD40 ligand, Donor 4) 87.0 pg/mL; (CD40 ligand, Donor 6) 54.2 pg/mL; (CpG, Donor 1) 104.5 pg/mL; (CpG, Donor 3) 70.0 pg/mL; (CpG, Donor 6) 106.2 pg/mL. This compound also yielded a TNFα (LPS, Donor 4) of 0.0 pg/mL and a TNFα (LPS, Donor 6) of 174.8 pg/mL.
